From patent publication US8044048B2, “Derivatives of sulindac, use thereof and preparation thereof” (Southern Research Institute, priority 2006, dated 2011) come the findings set out here.

For series [1], the system named is human HT29 colon tumor cell line. The series is described as follows: Growth inhibitory activity / in vitro cytotoxicity against human HT29 colon tumor cells. The text has this:
These toxicities include gastrointestinal, renal and hematological disturbances which results from COX-1 inhibition as well as cardiovascular toxicity which likely results from COX-2 inhibition.

The subject of another series is tumor cells. The experiment in a line: Cytostatic and cytotoxic activity. The format is cell-based. The conditions noted are these: FIGS. 3A and 3B, compared with sulindac sulfide. The text has this: Cytotoxic activity is defined as the ability the treatment to reduce cell number below the number when treatment was initiated and is an indicator of chemotherapeutic efficacy. Cytostasis is defined as the ability of the treatment to reduce cell number relative to untreated cells and is an indicator of chemopreventive efficacy.

The target of the next series is COX-1 (Homo sapiens, UniProt P23219). The series is described as follows: COX-1 inhibitory activity. Format: biochemical.
Chain of COX-1 (P23219 24-599): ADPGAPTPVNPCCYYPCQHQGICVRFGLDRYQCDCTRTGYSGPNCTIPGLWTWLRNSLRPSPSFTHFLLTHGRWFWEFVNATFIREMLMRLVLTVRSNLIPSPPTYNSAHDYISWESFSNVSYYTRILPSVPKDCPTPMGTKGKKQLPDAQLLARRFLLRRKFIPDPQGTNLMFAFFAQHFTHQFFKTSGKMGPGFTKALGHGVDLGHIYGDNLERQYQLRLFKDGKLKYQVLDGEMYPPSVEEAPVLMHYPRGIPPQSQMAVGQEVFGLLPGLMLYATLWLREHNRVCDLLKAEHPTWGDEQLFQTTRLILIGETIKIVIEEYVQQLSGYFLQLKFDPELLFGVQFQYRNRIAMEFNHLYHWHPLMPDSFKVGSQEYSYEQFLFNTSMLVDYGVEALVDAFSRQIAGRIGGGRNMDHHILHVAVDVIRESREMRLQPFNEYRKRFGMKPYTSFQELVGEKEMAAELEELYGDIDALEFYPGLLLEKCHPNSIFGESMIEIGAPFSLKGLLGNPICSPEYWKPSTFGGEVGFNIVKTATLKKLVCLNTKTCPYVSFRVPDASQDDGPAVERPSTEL
Another series concerns the target T1, COX-2 (Homo sapiens, UniProt P35354).
T1 sequence (P35354 18-604): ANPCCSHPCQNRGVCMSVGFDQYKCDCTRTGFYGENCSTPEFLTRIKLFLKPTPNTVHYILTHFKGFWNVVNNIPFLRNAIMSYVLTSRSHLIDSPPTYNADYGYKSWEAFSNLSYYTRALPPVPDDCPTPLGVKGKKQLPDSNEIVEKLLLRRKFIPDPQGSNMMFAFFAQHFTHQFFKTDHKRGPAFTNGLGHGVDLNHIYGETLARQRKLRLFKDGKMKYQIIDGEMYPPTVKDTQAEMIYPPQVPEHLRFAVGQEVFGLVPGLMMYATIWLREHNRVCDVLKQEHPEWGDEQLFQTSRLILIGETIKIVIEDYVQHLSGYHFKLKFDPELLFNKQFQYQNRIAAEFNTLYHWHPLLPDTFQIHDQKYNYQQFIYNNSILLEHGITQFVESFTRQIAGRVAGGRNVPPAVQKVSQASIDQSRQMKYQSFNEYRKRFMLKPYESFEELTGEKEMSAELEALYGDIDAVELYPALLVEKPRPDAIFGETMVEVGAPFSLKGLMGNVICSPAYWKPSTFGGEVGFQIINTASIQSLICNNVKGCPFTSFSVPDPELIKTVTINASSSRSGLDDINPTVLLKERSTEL
The experiment in a line: COX-2 inhibitory activity. The format is biochemical.

The nature of series [2]: Oral bioavailability, plasma levels after oral administration. The format is in vivo.
Series [3] in a line: Toxicity in mice, maximum tolerated dose. The format is in vivo. How it is done:
FIGS. 5A and 5B show the reduced toxicity of SRI 21009 in mice relative to sulindac. Following a once a day dosing schedule, the maximum tolerated dose of sulindac is estimated to be 50 mg/kg in comparison to 300 mg/kg for SRI 21009.

In series [4] the test system is human colon HT29 colon tumor cells. The series is described as follows: Antitumor activity in athymic nude mice implanted with HT29 tumor cells. The format is in vivo. Particulars: 300 mg/kg, once a day dosing schedule, HT29 xenograft.
The test system of series [5] is panel of histologically diverse tumor cell types. The experiment in a line: Growth inhibitory activity against a panel of tumor cell types. The format is cell-based. Particulars: FIG. 2.
The mark [6] stands for this setting: read-out: IC50, growth inhibitory activity, human HT29 colon tumor cell line, Table B lower part.
[7] abbreviates: read-out: IC50 value, growth inhibitory activity, human HT29 colon tumor cell line, Table B upper part.
Setting [8] is: Homo sapiens, HT-29, read-out: IC50 value, growth inhibitory activity.
Setting [9] is: Homo sapiens, HT-29, read-out: cytotoxity IC50 values (50% inhibitory concentration).

Read-outs that look alike come from different tables or passages of the source.

`CC1=C(CC(=O)NCCN(C)C)c2cc(F)ccc2/C1=C\c1ccc(S(C)(=O)=O)cc1` [SRI 21487]: in series [1] (setting [6]), the IC50 was 10 µM.

Consider `CC1=C(CC(=O)NCCc2c[nH]cn2)c2cc(F)ccc2C1=Cc1ccc([S+](C)[O-])cc1` (centres unmarked) [SRI 21229], for which the IC50 in series [1] (setting [7]) was determined as 32.6 µM.

For `CNCCN(C)C(=O)CC1=C(C)/C(=C/c2ccc(SC)cc2)c2ccc(F)cc21` [SRI 21596], the IC50 in series [1] (setting [6]) was found to be 1.62 µM.

With `CC1=C(CC(=O)Nc2ccc(N(C)C)cc2)c2cc(F)ccc2/C1=C\c1ccc([S+](C)[O-])cc1` (centres unmarked) [SRI 21590, N-[[4-(Dimethylamino)phenyl]-(Z)-5-fluoro-2-methyl-3-[[4-(methylsulfinyl)phenyl]methylene]]-1H-indene-3-acetamide], the IC50 in series [1] (setting [6]) came out at 230 µM.

As for `CSc1ccc(/C=C2/C(C)=C(CC(=O)O)c3cc(F)ccc32)cc1` [Sulindac sulfide, reference compound], the IC50 in series [1] (setting [8]) was 45.2 µM; in series [1] (setting [9]), 71.2 µM.

With `CC1=C(CC(=O)NCCc2cccnc2)c2cc(F)ccc2C1=Cc1ccc([S+](C)[O-])cc1` (centres unmarked) [SRI 21162, 5-Fluoro-2-methyl-1-[[4-(methylsulfinyl)phenyl]methylene]-N-[2-(3-pyridinyl)ethyl]-1H-indene-3-acetamide], the IC50 in series [1] (setting [8]) turned out to be 99.8 µM.

For the molecule `CC1=C(CC(=O)NCC2CCCN2C)c2cc(F)ccc2C1=Cc1ccc([S+](C)[O-])cc1` (centres unmarked) [SRI 21008, 5-Fluoro-2-methyl-N-[(1-methyl-2-pyrrolidinyl)methyl]-1-[[4-(methylsulfinyl)phenyl]methylene]-1H-indene-3-acetamide], the IC50 in series [1] (setting [8]) came to 18.7 µM.

With `CC1=C(CC(=O)NCCN(C)C)c2cc(F)ccc2C1=Cc1ccc([S+](C)[O-])cc1` (centres unmarked) [SRI 21004, N-[2-(Dimethylamino)ethyl]-5-fluoro-2-methyl-1-[[4-(methylsulfinyl)phenyl]methylene]-1H-indene-3-acetamide], the IC50 in series [1] (setting [8]) turned out to be 25.1 µM; in series [1] (setting [9]), 29.2 µM. Besides, the “cytotoxic activity (reduce cell number below the number when treatment was initiated)” value in the series with tumor cells is listed as “greater potential for chemotherapeutic efficacy compared with sulindac sulfide”.

Take `CCN(CC)CCNC(=O)CC1=C(C)C(=Cc2ccc([S+](C)[O-])cc2)c2ccc(F)cc21` (centres unmarked) [SRI 21276]: in series [1] (setting [7]), the IC50 came out at 18.2 µM.

Take `CC1=C(CC(=O)NCCN2CCNCC2)c2cc(F)ccc2C1=Cc1ccc([S+](C)[O-])cc1` (centres unmarked) [SRI 21113, 5-Fluoro-2-methyl-1-[[4-(methylsulfinyl)phenyl]methylene]-N-[2-(1-piperazinyl)ethyl]-1H-indene-3-acetamide]: in series [1] (setting [8]), the IC50 amounted to 76.9 µM.

In the case of `CC1=C(CC(=O)N2CCN(C)CC2)c2cc(F)ccc2C1=Cc1ccc([S+](C)[O-])cc1` (centres unmarked) [SRI 21387, Ethanone, 2-[5-fluoro-2-methyl-1-[[4-(methylsulfinyl)phenyl]methylene]-1H-inden-3-yl]-1-(4-methylpiperazinyl)], the IC50 in series [1] (setting [6]) turned out to be 71 µM.

As to “N,2-Dimethyl-N-[2-(dimethylamino)ethyl]-5-fluoro-1-[[4-ethylsulfinyl)phenyl]methylene]-1H-indene-3-acetamide [SRI 21179]”, the IC50 in series [1] (setting [7]) came out at 19.8 µM.

`CSc1ccc(/C=C2/C(C)=C(CC(=O)Nc3ccc(N(C)C)cc3)c3cc(F)ccc32)cc1` [SRI 21623, N-[[4-(Dimethylamino)phenyl]-(Z)-5-fluoro-2-methyl-3-[[4-(methylthio)phenyl]methylene]]-1H-indene-3-acetamide]: the “solubility during the bioassay” value in series [1] was “solubility issues during the bioassay”. Also, the IC50 in series [1] (setting [6]) is greater than 100 µM.

For `CSc1ccc(/C=C2/C(C)=C(CC(=O)NCCN(C)C)c3cc(F)ccc32)cc1` [SRI 21009, N-[2-(Dimethylamino)ethyl]-5-fluoro-2-methyl-1-[[4-(methylsulfide)phenyl]methylene]-1H-indene-3-acetamide], the IC50 turned out to be 1.47 µM in series [1] (setting [8]), 1.47 µM in series [1] (setting [9]), 1480 µM on COX-1 and 164 µM against COX-2. In addition, the “sulindac sulfoxide, sulfone, or sulfide detected in the plasma” value in series [2] (following SRI 21009 administration) is listed as “Negligible amounts”. For the same molecule, in series [2] (oral administration, single dose of 200 mg/kg), the achievable plasma levels entry is given as “exceeded the IC50 value for in vitro growth inhibition”. In addition, the MTD (usually the highest dose tested that stayed within the study's limit of toxicity) in series [3] (mouse, in vivo) is roughly 300 mg/kg. In addition, the antitumor activity result in series [4] is “as effective as sulindac at 50 mg/kg”. For the same molecule, the “growth inhibitory activity across tumor cell types” value in series [5] is on record as “enhanced sensitivity of tumor cells derived from colorectal tumors compared with other tumor types”.

As for `CC1=C(CC(=O)O)c2cc(F)ccc2/C1=C\c1ccc([S+](C)[O-])cc1` (centres unmarked) [Sulindac sulfoxide, Sulindac], the IC50 in series [1] (setting [7]) is 450 µM; in series [1] (read-out: cytotoxity IC50 values (50% inhibitory concentration), human colon tumor cells, in vitro), 479 µM. The maximum tolerated dose in series [3] (mice, once a day dosing schedule) is given as roughly 50 mg/kg.

Regarding `CC1=C(CC(=O)NCc2ccc(N(C)C)cc2)c2cc(F)ccc2C1=Cc1ccc([S+](C)[O-])cc1` (centres unmarked) [SRI 21275, N-[[4-(Dimethylamino)phenyl]methyl]-5-fluoro-2-methyl-1-[[4-(methylsulfinyl)phenyl]methylene]-1H-indene-3-acetamide], the IC50 in series [1] (setting [8]) stood at 6.3 µM.

With `CC1=C(CC(=O)NCCN2CCCCC2)c2cc(F)ccc2C1=Cc1ccc([S+](C)[O-])cc1` (centres unmarked) [SRI 21114, 5-Fluoro-2-methyl-1-[[4-(methylsulfinyl)phenyl]methylene]-N-[2-(1-piperidinyl)ethyl]-1H-indene-3-acetamide], in series [1] (setting [8]), the IC50 is 19.7 µM.

As for `CC1=C(CC(=O)NCCN)c2cc(F)ccc2C1=Cc1ccc([S+](C)[O-])cc1` (centres unmarked) [SRI 21185, N-(2-Aminoethyl)-5-fluoro-2-methyl-1-[[4-(methylsulfinyl)phenyl]methylene]-1H-indene-3-acetamide], in series [1] (setting [8]), the IC50 is 85.2 µM.

On to `CSc1ccc(/C=C2/C(C)=C(CC(=O)NCc3ccc(N(C)C)cc3)c3cc(F)ccc32)cc1` [SRI 21540, N-[[4-(Dimethylamino)phenyl]methyl]-(Z)-5-fluoro-2-methyl-3-[[4-(methylthio)phenyl]methylene]-1H-indene-3-acetamide], for which, in series [1] (setting [6]), the IC50 is 3.22 µM.

Consider `CC1=C(CC(=O)NCCN2CCCC2)c2cc(F)ccc2C1=Cc1ccc([S+](C)[O-])cc1` (centres unmarked) [SRI 21169, 5-Fluoro-2-methyl-1-[[4-(methylsulfinyl)phenyl]methylene]-N-[2-(1-pyrrolidinyl)ethyl]-1H-indene-3-acetamide], for which the IC50 in series [1] (setting [8]) is 17.2 µM.

With `CC1=C(CC(=O)NCCN2CCOCC2)c2cc(F)ccc2C1=Cc1ccc([S+](C)[O-])cc1` (centres unmarked) [SRI 21178, 5-Fluoro-2-methyl-1-[[4-(methylsulfinyl)phenyl]methylene]-N-[2-(4-morpholinyl)ethyl]-1H-indene-3-acetamide], the IC50 in series [1] (setting [8]) was 114 µM.
